Patent US20220356174A1, “PYRIDIN-2-ONE COMPOUNDS USEFUL AS SMARCA2 ANTAGONISTS” (Epizyme, Inc., priority 2018, published 2022)
Like-named read-outs stand apart in the source and are kept apart here.

Assays:
[1] = molecular target: T1, FL-SMARCA2 (full-length human SMARCA2 isoform 1) (Homo sapiens, UniProt P51531); assay: SMARCA2 ATPase activity assay (ADP-Glo, chicken mononucleosome substrate); type: biochemical; conditions: ATP 250 uM
T1 construct: FLAG tag (YKDDDDK) (C); made in house; host or cells: Sf21 insect cells (baculovirus, pFastBacI)
T1 sequence (P51531 with tags, fused parts or gaps): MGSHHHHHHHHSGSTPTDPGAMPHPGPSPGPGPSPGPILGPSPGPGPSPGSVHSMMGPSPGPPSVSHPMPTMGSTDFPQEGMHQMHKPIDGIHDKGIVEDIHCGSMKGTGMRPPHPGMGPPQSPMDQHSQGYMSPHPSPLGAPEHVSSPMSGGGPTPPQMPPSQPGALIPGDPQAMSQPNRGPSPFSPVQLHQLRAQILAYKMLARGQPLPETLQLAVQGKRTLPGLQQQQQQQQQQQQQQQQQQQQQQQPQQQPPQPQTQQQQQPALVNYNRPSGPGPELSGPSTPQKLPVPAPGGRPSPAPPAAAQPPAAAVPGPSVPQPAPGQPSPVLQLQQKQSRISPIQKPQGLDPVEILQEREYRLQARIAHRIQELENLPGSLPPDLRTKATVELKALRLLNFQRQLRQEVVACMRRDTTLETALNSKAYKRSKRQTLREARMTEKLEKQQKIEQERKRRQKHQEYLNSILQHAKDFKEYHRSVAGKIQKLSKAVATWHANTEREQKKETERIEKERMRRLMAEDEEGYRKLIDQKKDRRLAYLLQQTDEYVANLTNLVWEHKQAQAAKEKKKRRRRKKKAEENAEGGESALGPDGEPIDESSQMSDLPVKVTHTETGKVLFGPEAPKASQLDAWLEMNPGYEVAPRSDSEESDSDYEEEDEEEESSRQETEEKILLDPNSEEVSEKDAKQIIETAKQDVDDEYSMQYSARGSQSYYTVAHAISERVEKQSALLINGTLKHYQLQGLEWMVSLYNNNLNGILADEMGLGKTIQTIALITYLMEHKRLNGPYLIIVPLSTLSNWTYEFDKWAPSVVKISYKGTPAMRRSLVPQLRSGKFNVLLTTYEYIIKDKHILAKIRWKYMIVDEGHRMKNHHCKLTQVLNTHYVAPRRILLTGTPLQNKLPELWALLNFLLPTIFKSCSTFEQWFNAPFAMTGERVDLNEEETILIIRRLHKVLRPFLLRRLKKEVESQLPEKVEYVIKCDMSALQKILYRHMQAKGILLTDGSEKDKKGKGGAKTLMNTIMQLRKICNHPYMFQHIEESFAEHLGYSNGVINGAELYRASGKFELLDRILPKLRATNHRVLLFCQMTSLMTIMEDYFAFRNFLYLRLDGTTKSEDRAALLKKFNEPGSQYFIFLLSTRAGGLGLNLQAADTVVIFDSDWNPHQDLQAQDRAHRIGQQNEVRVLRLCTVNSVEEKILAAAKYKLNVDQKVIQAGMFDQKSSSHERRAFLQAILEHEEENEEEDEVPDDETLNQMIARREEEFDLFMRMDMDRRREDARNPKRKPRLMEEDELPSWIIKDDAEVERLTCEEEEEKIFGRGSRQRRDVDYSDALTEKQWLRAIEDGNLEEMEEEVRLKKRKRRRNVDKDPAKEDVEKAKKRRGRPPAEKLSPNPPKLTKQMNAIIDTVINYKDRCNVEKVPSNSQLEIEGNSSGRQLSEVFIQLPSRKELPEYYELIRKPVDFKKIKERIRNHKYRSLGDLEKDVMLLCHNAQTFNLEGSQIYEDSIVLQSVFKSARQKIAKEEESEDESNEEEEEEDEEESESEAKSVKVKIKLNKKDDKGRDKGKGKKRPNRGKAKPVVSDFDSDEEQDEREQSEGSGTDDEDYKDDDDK

A549 cells = assay: High-throughput proliferation (HTP) assay for A549 cells (CellTiter-Glo, 7 days); type: cell-based; conditions: Homo sapiens, 168 h, read-out: A549 SMARCA2 IC50
Experimental: Thawing vials: A549 cells (ATCC #CCL-185™) were thawed from a cryovial containing approximately 1.6×10^6 cells frozen in 70% F12K medium, 20% HI-FBS and 10% DMSO. Cells were thawed by submerging the bottom half of the vial in a 37° C. water bath and gently flicked until almost thawed. The cells were transferred into a 15 mL conical tube containing 9 mL of F12K medium+10% HI-FBS and then centrifuged at 200×g for 4 min before drawing off the media without disturbing the cell pellet in order to remove the DMSO. The cells were resuspended again in 15 mL of F12K fresh complete media+10% HI-FBS and grown up in a T75 flask at 37° C. with 5% CO2 Incubator. Viability was measured to obtain baseline.
Frozen stock vials preparation: The cell culture was transferred to a 50 mL conical tube, spun down to remove medium, and resuspended at 1-2×10^6 cells/mL in complete medium containing 10% DMSO. The culture was then stored for 24 hours at −80 degree C., (with the initial rate of freezing is −1 degree C. per minute in a freezing container), then transferred and stored in liquid nitrogen.
(§1) Routine subculture: Sub-confluent cultures (70-80%) were split every 4 days, seeding out at 1-2×10^6 cells/75 cm^2.
Day 0: Assay ready plates were prepared by dispensing 50 nL of compound or DMSO in the appropriate wells of 384-well white CulturPlates using Echo550. Using the Multiflo, A549 cells were plated at 50 μL/well in F12K complete media+10% HI-FBS+1% pen/strep at cell density determined [1,250 cells/mL (62.5 cells/well)] from growth curve.
Treated cells were incubated at 37° C., 5% CO2, relative humidity >90% for 7 days. CellTiter-Glo (CTG) ATP detection reagent was prepared according to manufacturer's specifications. Cell assay plates were removed from the incubator and brought to room temperature (RT). Using the MultiDrop liquid handler, 30 μL of CTG were added per well. Plates were placed on the multidrop dispenser shake for 5 seconds at room temperature (RT). Plates were incubated for 30 minutes in the dark at RT before measuring luminescence using the Envison2104.
Data analysis: Using the DMSO control wells as the 0% inhibition (high signal) control and the 10 μM Doxorubicin control wells as the 100% inhibition (low signal) control, percent inhibition EC50s (inflection point) and IC50 s were calculated for the compound dose responses.

FL-SMARCA4 = FL-SMARCA4 (Homo sapiens, UniProt P51532); assay: SMARCA4 ATPase activity assay (ADP-Glo, chicken mononucleosome substrate)
Sequence of FL-SMARCA4 (P51532 whole entry): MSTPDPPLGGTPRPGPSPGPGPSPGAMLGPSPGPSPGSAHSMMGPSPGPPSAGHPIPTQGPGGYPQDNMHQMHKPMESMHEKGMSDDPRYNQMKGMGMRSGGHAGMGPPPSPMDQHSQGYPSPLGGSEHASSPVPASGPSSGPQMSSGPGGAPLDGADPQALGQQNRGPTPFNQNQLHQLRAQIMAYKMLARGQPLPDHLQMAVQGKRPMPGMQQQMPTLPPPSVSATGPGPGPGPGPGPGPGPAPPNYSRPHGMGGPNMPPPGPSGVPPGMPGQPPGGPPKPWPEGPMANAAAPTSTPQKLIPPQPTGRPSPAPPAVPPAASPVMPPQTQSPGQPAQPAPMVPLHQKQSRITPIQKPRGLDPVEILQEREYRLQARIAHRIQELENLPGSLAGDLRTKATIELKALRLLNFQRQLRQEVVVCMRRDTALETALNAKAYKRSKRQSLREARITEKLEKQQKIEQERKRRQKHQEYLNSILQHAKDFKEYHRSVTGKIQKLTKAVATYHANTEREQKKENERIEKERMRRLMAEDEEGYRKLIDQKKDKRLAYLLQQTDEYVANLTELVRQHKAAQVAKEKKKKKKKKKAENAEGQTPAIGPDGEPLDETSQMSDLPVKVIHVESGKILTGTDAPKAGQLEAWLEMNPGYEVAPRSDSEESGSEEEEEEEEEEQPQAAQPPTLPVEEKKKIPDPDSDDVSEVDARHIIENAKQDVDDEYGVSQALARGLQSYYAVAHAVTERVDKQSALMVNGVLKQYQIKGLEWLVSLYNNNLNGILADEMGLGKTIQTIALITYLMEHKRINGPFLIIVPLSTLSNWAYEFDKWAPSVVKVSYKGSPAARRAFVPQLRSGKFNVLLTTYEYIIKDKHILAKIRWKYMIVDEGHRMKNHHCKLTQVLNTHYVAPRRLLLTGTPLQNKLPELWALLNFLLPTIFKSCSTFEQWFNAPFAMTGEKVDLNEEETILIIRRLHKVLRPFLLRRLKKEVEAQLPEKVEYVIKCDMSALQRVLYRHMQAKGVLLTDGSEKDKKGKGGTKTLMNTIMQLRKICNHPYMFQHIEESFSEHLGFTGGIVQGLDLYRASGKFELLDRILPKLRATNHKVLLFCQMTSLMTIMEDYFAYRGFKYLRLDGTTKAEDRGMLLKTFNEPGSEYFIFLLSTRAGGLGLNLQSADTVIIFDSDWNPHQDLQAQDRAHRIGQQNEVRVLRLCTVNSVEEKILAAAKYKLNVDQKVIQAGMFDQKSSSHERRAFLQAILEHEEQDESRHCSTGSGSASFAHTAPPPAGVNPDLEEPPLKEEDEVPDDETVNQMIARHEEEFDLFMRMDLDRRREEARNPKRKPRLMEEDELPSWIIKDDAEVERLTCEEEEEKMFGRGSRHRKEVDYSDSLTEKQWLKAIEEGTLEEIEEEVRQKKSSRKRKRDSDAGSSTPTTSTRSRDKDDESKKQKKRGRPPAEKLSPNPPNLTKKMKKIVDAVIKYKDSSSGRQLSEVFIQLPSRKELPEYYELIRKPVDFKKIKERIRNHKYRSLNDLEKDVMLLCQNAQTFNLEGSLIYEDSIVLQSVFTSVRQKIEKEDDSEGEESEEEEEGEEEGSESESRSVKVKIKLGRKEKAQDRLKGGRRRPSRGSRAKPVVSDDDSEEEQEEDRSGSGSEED

H358 cells = assay: High-throughput proliferation (HTP) assay for H358 cells (CellTiter-Glo, 7 days); type: cell-based; conditions: Homo sapiens, NCI-H358, 168 h, read-out: H358 SMARCA2 IC50
Experimental: Thawing vials: H358 cells (ATCC #CRL-5807™) were thawed from a cryovial containing approximately 1.6×10^6 cells frozen in 70% RPMI 1640 medium, 20% HI-FBS and 10% DMSO. Cells were thawed by submerging the bottom half of the vial in a 37° C. water bath and gently flicked until almost thawed. The cells were removed and transferred into a 15 mL conical tube containing 9 mL RPMI 1640 medium+10% HI-FBS and then centrifuged 200×g for 4 min before drawing off the media without disturbing the cell pellet to remove the DMSO. The cells were resuspended again in 15 mL of RPMI 1640 fresh complete media+10% HI-FBS and grown up in a T75 flask at 37° C. with 5% CO2 Incubator. Viability was measured to obtain baseline.
Preparing frozen stock vials: Cell density was counted in a stock flask. The culture was transferred to a 50 mL conical tube and spun down to remove medium, and then resuspend at 1-2×10^6 cells/mL in complete medium containing 10% DMSO and transferred to a 1 mL per vial.
as §1
Day 0: Assay ready plates were prepared by dispensing 50 nL of compound stock or DMSO in the appropriate wells of 384-well white CulturPlates using Echo550. Using the Multiflo, H358 cells at 50 μL/well were plated in RPMI 1640 complete media+10% HI-FBS+1% pen/strep at cell density determined [20,000 cells/mL (1,000 cells/well)] from growth curve. Treated cells were inclubated at 37° C., 5% CO2, relative humidity >90% for 7 days. CellTiter-Glo (CTG) ATP detection reagent was prepared according to manufacturer's specifications. Cell assay plates were removed from incubator and bring to room temperature (RT).
Using the MultiDrop liquid handler, 30 μL of CTG were added per well. Plates were placed on the multidrop dispenser shake for 5 seconds at RT. Plates were incubated for 30 minutes in the dark at RT before measuring luminescence using the Envison2104.
Data analysis: Using the DMSO control wells as the 0% inhibition (high signal) control and the 10 uM Doxorubicin control wells as the 100% inhibition (low signal) control, percent inhibition EC50s (inflection point) and IC50s were calculated for the compound dose responses.

[2] = Table 3.1, ATPase assay, enzyme 5 nM, chicken mononucleosome 10 nM, 30 min preincubation
[3] = FL-SMARCA4 IC50, Table 3.2, ATPase assay, enzyme 5 nM, ATP 250 uM, chicken mononucleosome 10 nM, 30 min preincubation
[4] = Table 3c.1, ATPase assay, enzyme 5 nM, chicken mononucleosome 10 nM, 30 min preincubation
[5] = Table 3a.1, SMARCA2 5 nM, mononucleosome 10 nM
[6] = FL-SMARCA4 IC50, Table 3a.2, SMARCA4 5 nM, ATP 250 uM, mononucleosome 10 nM
[7] = FL-SMARCA4 IC>50, Table 3c.2, ATPase assay, enzyme 5 nM, ATP 250 uM, chicken mononucleosome 10 nM, 30 min preincubation

SMILES | IC50 [1, 2] | IC50 (A549 cells) | IC50 (FL-SMARCA4; [3]) | other results
N#Cc1cc(NC(=O)c2cc(F)c(Cl)s2)cn(CC(F)F)c1=O [Compound 338] | 89 nM | 3210 nM | 363 nM | –
N#Cc1[nH]c(C(=O)Nc2cc(C#N)c(=O)n(CCF)c2)cc1Cl [Compound 238] | 232 nM | 7270 nM | 879 nM | –
CS(=O)(=O)c1csc(C(=O)Nc2cc(F)c(=O)n(CCF)c2)c1 [Compound 302] | > 50000 nM | > 10000 nM | > 50000 nM | –
N#Cc1[nH]c(C(=O)Nc2cc(F)c(=O)n(CCF)c2)cc1Cl [Compound 232] | 24.9 nM | 15500 nM | 111 nM | –
N#Cc1[nH]c(C(=O)Nc2cc(Cl)c(=O)n(CC(F)(F)F)c2)cc1Cl [Compound 237] | 201 nM | ≥ 20000 nM | 863 nM | –
N#Cc1[nH]c(C(=O)Nc2ccc(=O)n(CC(F)(F)F)c2)cc1Cl [Compound 234] | 478 nM | ≥ 20000 nM | 1740 nM | –
Cn1cncc1C#Cc1cc(C(=O)Nc2cc(F)c(=O)n(CC(F)F)c2)sc1Cl [Compound 330] | – | > 10000 nM | – | IC50 (H358 cells): 8740 nM
Cn1c(C(=O)Nc2cc(F)c(=O)n(CCF)c2)cnc1C#N [Compound 220] | 488 nM | ≥ 20000 nM | 1930 nM | –
Cc1nnc(C#Cc2cc(C(=O)Nc3cc(F)c(=O)n(CC(F)F)c3)sc2Cl)[nH]1 [Compound 127c] | – | > 10000 nM | – | IC50 [1, 4]: 352 nM; IC50 (H358 cells): > 10000 nM
N#Cc1cc(C(=O)Nc2cc(Cl)c(=O)n(CCF)c2)[nH]c1Cl [Compound 240] | 626 nM | ≥ 20000 nM | 2390 nM | –
N#Cc1[nH]c(C(=O)Nc2cc(F)c(=O)n(CC(F)(F)F)c2)cc1Cl [Compound 242] | 38.9 nM | 17400 nM | 168 nM | –
N#Cc1cc(C(=O)Nc2cc(F)c(=O)n(CC(F)(F)F)c2)sc1Cl [Compound 207] | 72.9 nM | 892 nM | 342 nM | –
O=C(Nc1cc(F)c(=O)n(CC(F)F)c1)c1cc(F)c(C(F)(F)F)s1 [Compound 25c] | – | 614 nM | – | IC50 [1, 4]: 14.2 nM; IC50 (H358 cells): > 10000 nM
CCn1cc(NC(=O)c2cc(Cl)c(C#N)[nH]2)cc(Cl)c1=O [Compound 236] | 125 nM | ≥ 20000 nM | 555 nM | –
N#Cc1ncc(C(=O)Nc2cc(C#N)c(=O)n(CCF)c2)s1 [Compound 203] | 40.7 nM | ≥ 20000 nM | 118 nM | –
O=C(Nc1cc(Cl)c(=O)n(CC(F)F)c1)c1cc(F)c(Cl)s1 [Compound 337] | 33.7 nM | 769 nM | 104 nM | –
Cc1ncc(C(=O)Nc2cc(F)c(=O)n(CCF)c2)s1 [Compound 222] | 1310 nM | ≥ 20000 nM | 10200 nM | –
N#Cc1[nH]c(C(=O)Nc2ccc(=O)n(CCF)c2)cc1Cl [Compound 231] | 142 nM | ≥ 20000 nM | 544 nM | –
CC(O)C#Cc1cc(C(=O)Nc2cc(F)c(=O)n(CC(F)F)c2)sc1Cl (stereo not shown) [Compound 339] | 943 nM | > 10000 nM | 2320 nM | –
N#Cc1cc(C(=O)Nc2ccc(=O)n(CCF)c2)sc1C#N [Compound 182] | 35.5 nM | ≥ 20000 nM | 126 nM | –

SMILES | IC50 [1, 2] | IC50 (A549 cells) | IC50 (FL-SMARCA4; [3]) | other results
COc1ncc(C(=O)Nc2cc(F)c(=O)n(CCF)c2)s1 [Compound 223] | 18400 nM | ≥ 20000 nM | > 50000 nM | –
CCn1cc(NC(=O)c2cc(Cl)c(C#N)[nH]2)cc(F)c1=O [Compound 235] | 59.1 nM | ≥ 20000 nM | 272 nM | –
O=C(Nc1cc(F)c(=O)n(CCF)c1)c1cc(Cl)c(F)s1 [Compound 251] | 131 nM | 5460 nM | 623 nM | –
O=C(Nc1cc(C(F)(F)F)c(=O)n(CC(F)F)c1)c1cc(F)c(Cl)s1 [Compound 336] | 1240 nM | > 10000 nM | 5870 nM | –
O=C(Nc1cc(F)c(=O)n(CCF)c1)c1cnc([N+](=O)[O-])s1 [Compound 275] | 381 nM | ≥ 20000 nM | 2100 nM | –
Cn1cnc2cc(C(=O)Nc3cc(F)c(=O)n(CCF)c3)[nH]c2c1=O [Compound 48d] | – | – | – | IC50 ([1]; Table 3d.1, ATPase assay, enzyme 5 nM, chicken mononucleosome 10 nM, 30 min preincubation, read-out: FL-SMARCA2 IC>50): > 50000 nM; IC50 (FL-SMARCA4; FL-SMARCA4 IC50): > 50000 nM
COC1(C(=O)Nc2ccc(=O)n(Cc3ccccc3Cl)c2)CCNCC1 [Compound 4a] | – | – | – | IC50 [1, 5]: > 50000 nM; IC50 (FL-SMARCA4; [6]): > 50000 nM
CCn1cc(NC(=O)c2cc(Cl)c(Cl)n2C)cc(F)c1=O [Compound 164] | 311 nM | – | 1340 nM | –
O=C(Nc1cc(F)c(=O)n(CCF)c1)c1ccc(-c2ccncc2)s1 [Compound 314] | > 50000 nM | – | > 50000 nM | –
CC(C)(C)OC(=O)N1CC(C#Cc2cc(C(=O)Nc3cc(F)c(=O)n(CC(F)F)c3)sc2Cl)C1 [Compound 10c] | – | – | – | IC50 [1, 4]: 3350 nM; IC50 (FL-SMARCA4; [7]): 7130 nM
O=C(Nc1cc(NCCN2CCOCC2)c(=O)n(CCF)c1)c1cc(Cl)c(Cl)s1 [Compound 256] | 6340 nM | – | 21400 nM | –
O=C(Nc1cc(C#CC(F)(F)F)c(=O)n(CC(F)F)c1)c1cc(F)c(Cl)s1 [Compound 26c] | – | – | – | IC50 [1, 4]: 5410 nM; IC50 (FL-SMARCA4; [7]): 6270 nM
CCn1cc(NC(=O)c2cc3ccccc3s2)ccc1=O [Compound 36a] | – | – | – | IC50 [1, 5]: > 50000 nM; IC50 (FL-SMARCA4; [6]): > 50000 nM
CCn1cc(NC(=O)c2cc(Cl)c(Cl)[nH]2)cc(Cl)c1=O [Compound 158] | 1850 nM | – | 13700 nM | –
O=C(Nc1cc(F)c(=O)n(CCF)c1)N1CCCC1 [Compound 52a] | – | – | – | IC50 [1, 5]: > 50000 nM; IC50 (FL-SMARCA4; [6]): > 50000 nM
CC(F)Cn1cc(NC(=O)c2cc(Cl)c(C(F)(F)F)s2)cc(F)c1=O (stereo not shown) [Compound 331] | 172 nM | – | 924 nM | –
CCn1cc(NC(=O)c2ccc(Cl)s2)ccc1=O [Compound 40] | 2630 nM | – | 11600 nM | –
CS(=O)(=O)c1ccc(C(=O)Nc2cc(F)c(=O)n(CCF)c2)s1 [Compound 288] | > 50000 nM | – | > 50000 nM | –
CC(CF)n1cc(NC(=O)c2cc(Cl)c(C(F)(F)F)s2)cc(F)c1=O (stereo not shown) [Compound 340] | 695 nM | > 10000 nM | 4890 nM | –
